Test results as given in the supplement of paper PMC10307832.

How the values were obtained:
Assay in all cases: relative viability (nuclei count vs DMSO), 5 days (fraction); higher = more cells survive
CX-5461 = compound: Cc1cnc(CNC(=O)c2c(=O)c3ccc(N4CCCN(C)CC4)nc3n3c2sc2ccccc23)cn1 [CX-5461]
Procedure, shortened: (§1)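 Vehicle-anchored 1536-well plates of lung cancer cell lines, held overnight at 37 °C, were pinned with five library-drug doses (not always all listed) spaced by √10. No medium change followed over the next 5 days, after which the cells were fixed, permeabilised and Hoechst-stained together and imaged at 4×. Nuclei were counted with MetaXpress, and viability is treated-well nuclei over vehicle-well nuclei, taken as a median across plates. Plates passed with control CV below 25% and at least one doubling.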

IMD-0354 = compound: O=C(Nc1cc(C(F)(F)F)cc(C(F)(F)F)c1)c1cc(Cl)ccc1O [IMD-0354]
Procedure, shortened: as §1

IMD-0354 + Pemetrexed = compound: O=C(Nc1cc(C(F)(F)F)cc(C(F)(F)F)c1)c1cc(Cl)ccc1O [IMD-0354] + Nc1nc2[nH]cc(CCc3ccc(C(=O)N[C@@H](CCC(=O)O)C(=O)O)cc3)c2c(=O)[nH]1 [Pemetrexed] (partner 0.2 µM)
Procedure, shortened: (§2)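 Lung cancer cell lines were pin-tool dosed in 1536-well plates on the day after seeding, with either a lone drug or a fixed anchor-drug dose plus five library-drug doses (not always all listed) in √10 steps. Nuclei were counted on 4× images after 5 days. Relative viability is the ratio of treated-well to vehicle-well nuclei counts, with each value a median of duplicate plates.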

CX-5461 + Alpelisib = compound: Cc1cnc(CNC(=O)c2c(=O)c3ccc(N4CCCN(C)CC4)nc3n3c2sc2ccccc23)cn1 [CX-5461] + Cc1nc(NC(=O)N2CCC[C@H]2C(N)=O)sc1-c1ccnc(C(C)(C)C(F)(F)F)c1 [Alpelisib] (partner 2 µM)
Procedure, shortened: as §2

Cell Line	relative viability (CX-5461; 0.01 µM)	relative viability (CX-5461; 0.03162 µM)	relative viability (CX-5461; 0.1 µM)	relative viability (CX-5461; 0.3162 µM)	relative viability (CX-5461; 1 µM)	relative viability (IMD-0354; 0.04 µM)	relative viability (IMD-0354; 0.1265 µM)	relative viability (IMD-0354; 0.4 µM)	relative viability (IMD-0354; 1.265 µM)	relative viability (IMD-0354; 4 µM)	relative viability (IMD-0354 + Pemetrexed; first compound 0.04 µM)	relative viability (IMD-0354 + Pemetrexed; first compound 0.1265 µM)	relative viability (IMD-0354 + Pemetrexed; first compound 0.4 µM)	relative viability (IMD-0354 + Pemetrexed; first compound 1.265 µM)	relative viability (IMD-0354 + Pemetrexed; first compound 4 µM)	relative viability (CX-5461 + Alpelisib; first compound 0.01 µM)	relative viability (CX-5461 + Alpelisib; first compound 0.03162 µM)	relative viability (CX-5461 + Alpelisib; first compound 0.1 µM)	relative viability (CX-5461 + Alpelisib; first compound 0.3162 µM)	relative viability (CX-5461 + Alpelisib; first compound 1 µM)
NCI-H1355	1.03	1.06	0.96	0.521	0.671	1.12	0.946	0.716	0.368	0.221	1.07	1.1	0.673	0.527	0.216	0.867	0.82	0.928	0.758	0.878
NCI-H1395	0.978	0.853	0.816	0.475	0.588	1.15	0.989	0.823	0.324	0.296	0.986	0.81	0.616	0.334	0.323	1.31	0.935	0.897	0.704	0.561
NCI-H1437	1.03	0.97	0.894	1.03	0.877	1.12	0.941	0.626	0.32	0.244	0.321	0.338	0.221	0.191	0.202	0.979	0.941	–	0.913	0.801
NCI-H1563	0.963	0.954	0.806	0.939	0.64	0.979	0.974	0.856	0.472	0.402	0.815	0.9	0.669	0.5	0.231	0.903	0.85	0.899	0.901	0.489
NCI-H1651	0.956	0.871	0.57	0.959	0.371	1.04	0.983	0.577	0.402	0.139	0.653	0.647	0.38	0.14	0.116	–	0.79	–	0.665	0.115
NCI-H1666	0.985	0.992	0.949	0.904	0.808	0.954	0.922	0.82	0.611	0.523	0.905	1	0.708	0.832	0.824	1.01	0.983	–	0.924	0.416
NCI-H1734	1.02	1.05	1	0.694	0.579	1.09	0.969	0.731	0.306	0.142	0.449	0.458	0.369	0.23	0.129	0.772	0.789	0.665	0.559	0.615
NCI-H1755	1.09	1.03	1.01	1.01	0.901	0.989	1.02	0.76	0.454	0.26	0.458	0.407	0.387	0.375	0.291	0.899	1.01	0.929	0.973	0.919
NCI-H1792	1.01	0.894	0.904	1.05	0.502	0.969	0.847	0.553	0.412	0.434	1.01	0.57	0.493	0.163	0.152	0.774	0.744	0.706	0.898	0.602
NCI-H1793	0.989	1.1	0.875	0.997	0.942	1.09	0.759	0.499	0.229	0.213	0.971	0.795	0.446	0.191	0.257	0.769	0.668	0.772	0.71	0.726
NCI-H1915	1.06	1.13	0.996	0.79	0.899	0.824	1.02	0.675	0.316	0.165	0.557	0.469	0.357	0.399	0.163	1.07	1.12	1.09	1.04	1.03
NCI-H1944	1	1.14	0.994	0.358	0.318	0.866	0.981	0.653	0.74	0.156	0.593	0.683	0.642	0.146	0.122	0.806	0.936	0.808	–	0.831
NCI-H1975	1.02	0.974	0.905	0.961	0.714	0.949	0.986	0.625	0.211	0.212	0.292	0.311	0.234	0.175	0.157	0.74	0.641	0.614	0.64	0.408
NCI-H1993	1.06	1.08	1.01	0.952	0.993	0.939	0.89	0.648	0.555	0.567	0.578	0.565	0.518	0.344	0.412	0.721	0.706	0.667	0.577	0.605
NCI-H2009	1.02	1.04	0.879	1.02	0.75	1.02	0.929	0.738	0.19	0.131	0.934	1	0.722	0.324	0.124	1.12	1.14	1.12	1.13	0.681
NCI-H2023	1	0.903	–	0.648	0.0929	1.11	0.986	0.573	0.128	0.0998	0.217	0.212	0.118	0.0926	0.103	0.646	0.606	–	0.57	0.0938
